Data on 18 compounds can be found in US10287301B2 (Achillion Pharmaceuticals, Inc., priority 2015, dated 2019).

SMILES strings stand for the structures.

The first test deals with Human Factor D (Homo sapiens (Human), UniProt P00746). The test is described as follows: Human Factor D Assay. The format is biochemical. The conditions noted are these: Human Factor D, Table 3; read-out: IC50. The method in brief: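 Serum-purified human Factor D (80 nM final) was preincubated with test compound at various concentrations for 5 min at room temperature in 50 mM Tris, 1M NaCl, pH 7.5. Z-L-Lys-SBzl and DTNB were then added at 100 μM each. IC50 came from nonlinear regression of reaction rates versus compound concentration.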
Chain of Human Factor D (P00746 26-253): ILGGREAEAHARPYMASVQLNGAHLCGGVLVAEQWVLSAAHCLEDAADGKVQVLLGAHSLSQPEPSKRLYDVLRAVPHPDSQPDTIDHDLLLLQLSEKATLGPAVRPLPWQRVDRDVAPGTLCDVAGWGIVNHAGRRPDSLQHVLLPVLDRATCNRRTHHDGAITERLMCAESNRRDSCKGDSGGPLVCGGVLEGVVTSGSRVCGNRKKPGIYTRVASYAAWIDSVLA
`CC(=O)c1nn(CC(=O)N2CC[C@H]2C(=O)Nc2cccc(Br)n2)c2ccc(-c3cnc(C)nc3)cc12` [Compound 542, (S)-1-(2-(3-Acetyl-5-(2-methylpyrimidin-5-yl)-1H-indazol-1-yl)acetyl)-N-(6-bromopyridin-2-yl)azetidine-2-carboxamide]: the IC50 is under 1000 nM.
Still for that read-out and setting: with `COc1ccc(-c2ccc3c(c2)c(C(C)=O)nn3CC(=O)N2CC[C@H]2C(=O)Nc2cccc(C)n2)cn1` [Compound 546, (S)-1-(2-(3-Acetyl-5-(6-methoxypyridin-3-yl)-1H-indazol-1-yl)acetyl)-N-(6-methylpyridin-2-yl)azetidine-2-carboxamide] the figure was over 10000 nM.
On the same count and under the same terms, with `CC(=O)c1nn(CC(=O)N2CC[C@H]2C(=O)Nc2cccc(C)n2)c2ccc(-c3cccc(C#N)c3)cc12` [Compound 547, (S)-1-(2-(3-Acetyl-5-(3-cyanophenyl)-1H-indazol-1-yl)acetyl)-N-(6-methylpyridin-2-yl)azetidine-2-carboxamide] the figure was over 10000 nM.
For the compound `CC(=O)c1nn(CC(=O)N2CC[C@H]2C(=O)Nc2cccc(C)n2)c2ccc(-c3cccnc3)cc12` [Compound 548, (S)-1-(2-(3-Acetyl-5-(pyridin-3-yl)-1H-indazol-1-yl)acetyl)-N-(6-methylpyridin-2-yl)azetidine-2-carboxamide], the IC50 was over 10000 nM.
Same read-out and setting: with `CC(=O)c1nn(CC(=O)N2CC[C@H]2C(=O)Nc2cccc(C)n2)c2ccc(-c3ccc(F)nc3)cc12` [Compound 549, (S)-1-(2-(3-Acetyl-5-(6-fluoropyridin-3-yl)-1H-indazol-1-yl)acetyl)-N-(6-methylpyridin-2-yl)azetidine-2-carboxamide] the figure was over 10000 nM; with `CC(=O)c1nn(CC(=O)N2[C@@H]3C[C@@H]3C[C@H]2C(=O)NCC(F)=C(C)C2CC2)c2ccc(-c3cnc(C)nc3)cc12` [Compound 551, (1R,3S,5R)-2-(2-(3-Acetyl-5-(2-methylpyrimidin-5-yl)-1H-indazol-1-yl)acetyl)-N-(3-cyclopropyl-2-fluorobut-2-en-1-yl)-2-azabicyclo[3.1.0]hexane-3-carboxamide], under 1000 nM; with `CC(=O)c1nn(CC(=O)N2C[C@H](F)C[C@H]2C(=O)Nc2cccc(Br)n2)c2ccc(-c3cnc(Oc4ccncc4)nc3)cc12` [Compound 554, (2S,4R)-1-(2-(3-aAetyl-5-(2-(pyridin-4-yloxy)pyrimidin-5-yl)-1H-indazol-1-yl)acetyl)-N-(6-bromopyridin-2-yl)-4-fluoropyrrolidine-2-carboxamide], under 1000 nM.
On the same count and under the same terms, with `CC(=O)c1nn(CC(=O)N2C[C@H](F)C[C@H]2C(=O)Nc2cccc(Br)n2)c2ccc(-c3cnc(COC(=O)N(C)C)nc3)cc12` [Compound 555, (5-(3-Acetyl-1-(2-((2S,4R)-2-((6-bromopyridin-2-yl)carbamoyl)-4-fluoropyrrolidin-1-yl)-2-oxoethyl)-1H-indazol-5-yl)pyrimidin-2-yl)methyl dimethylcarbamate] the figure was under 1000 nM; with `CC(=O)c1nn(CC(=O)N2C[C@H](F)C[C@H]2C(=O)Nc2cccc(Br)n2)c2ccc(-c3cnc(NS(C)(=O)=O)nc3)cc12` [Compound 556, (2S,4R)-1-(2-(3-Acetyl-5-(2-(methylsulfonamido)pyrimidin-5-yl)-1H-indazol-1-yl)acetyl)-N-(6-bromopyridin-2-yl)-4-fluoropyrrolidine-2-carboxamide], under 1000 nM.
Take `CC(=O)c1nn(CC(=O)N2[C@@H]3C[C@@H]3C[C@H]2C(=O)NC/C(F)=C(\C)c2ccccc2)c2ccc(-c3cnc(C)nc3)cc12` [Compound 557, (1R,3S,5R)-2-(2-(3-Acetyl-5-(2-methylpyrimidin-5-yl)-1H-indazol-1-yl)acetyl)-N—((Z)-2-fluoro-3-phenylbut-2-en-1-yl)-2-azabicyclo[3.1.0]hexane-3-carboxamide]: the half-maximal inhibitory concentration (IC50) was under 1000 nM.
Same read-out and setting: for `CC(=O)c1nn(CC(=O)N2C[C@H](F)C[C@H]2C(=O)Nc2ccn(CC(F)(F)F)n2)c2ccc(-c3cnc(N)nc3)cc12` [Compound 558, (2S,4R)-1-(2-(3-Acetyl-5-(2-aminopyrimidin-5-yl)-1H-indazol-1-yl)acetyl)-4-fluoro-N-(1-(S2,2,2-trifluoroethyl)-1H-pyrazol-3-yl)pyrrolidine-2-carboxamide] the value was under 1000 nM.
Same read-out and setting: for `CC(=O)c1nn(CC(=O)N2C[C@H](F)C[C@H]2C(=O)Nc2cccc(C(F)(F)F)n2)c2ccc(-c3cnc(N)nc3)cc12` [Compound 560, (2S,4R)-1-(2-(3-Acetyl-5-(2-aminopyrimidin-5-yl)-1H-indazol-1-yl)acetyl)-4-fluoro-N-(6-(trifluoromethyl)pyridin-2-yl)pyrrolidine-2-carboxamide] the value was under 1000 nM; for `CC(=O)c1nn(CC(=O)N2C[C@H](F)C[C@H]2C(=O)Nc2cccc(C(F)(F)F)n2)c2ccc(-c3cnc(C)nc3)cc12` [Compound 562, (2S,4R)-1-(2-(3-Acetyl-5-(2-methylpyrimidin-5-yl)-1H-indazol-1-yl)acetyl)-4-fluoro-N-(6-(trifluoromethyl)pyridin-2-yl)pyrrolidine-2-carboxamide], under 1000 nM.

Still in this test, the particulars now being: Table 3; Human Factor D 80 nM, substrate Z-L-Lys-SBzl; read-out: IC50 (Stars).
As for `Cc1cccc(NC(=O)[C@@H]2[C@H]3CC[C@H](C3)N2C(=O)Cn2cc(C(N)=O)c3cc(-c4cnc5c(c4)CCC5)ccc32)n1` [Compound 535, 5-(6,7-Dihydro-5H-cyclopenta[b]pyridin-3-yl)-1-(2-((1R,3S,4S)-3-(6-methylpyridin-2-ylcarbamoyl)-2-azabicyclo[2.2.1]heptan-2-yl)-2-oxoethyl)-1H-indole-3-carboxamide], the IC50 was over 10000 nM.
Consider `Cc1cccc(NC(=O)[C@@H]2[C@H]3CC[C@H](C3)N2C(=O)Cn2cc(C(N)=O)c3cc(-c4ccc5c(c4)CC5)ccc32)n1` [Compound 536, 5-(1,2-Dihydrocyclobutabenzen-4-yl)-1-(2-((1R,3S,4S)-3-(6-methylpyridin-2-ylcarbamoyl)-2-azabicyclo[2.2.1]heptan-2-yl)-2-oxoethyl)-1H-indole-3-carboxamide], for which the IC50 is over 10000 nM.
Still for that read-out and setting: for `CCOC(=O)Cc1ncc(-c2ccc3c(c2)c(C(C)=O)nn3CC(=O)N2C[C@H](F)C[C@H]2C(=O)Nc2cccc(Br)n2)cn1` [Compound 537, Ethyl 2-(5-(3-acetyl-1-(2-((2S,4R)-2-((6-bromopyridin-2-yl)carbamoyl)-4-fluoropyrrolidin-1-yl)-2-oxoethyl)-1H-indazol-5-yl)pyrimidin-2-yl)acetate] the value was under 1000 nM.
`CC(=O)c1nn(CC(=O)N2C[C@H](F)C[C@H]2C(=O)Nc2nc(Br)ccc2C2CC2)c2ccc(-c3cnc(C)nc3)cc12` [Compound 538, (2S,4R)-1-(2-(3-Acetyl-5-(2-methylpyrimidin-5-yl)-1H-indazol-1-yl)acetyl)-N-(6-bromo-3-cyclopropylpyridin-2-yl)-4-fluoropyrrolidine-2-carboxamide]: the IC50 was under 1000 nM.
For the compound `CCOC(=O)Cc1ncc(-c2ccc3c(c2)c(C(C)=O)nn3CC(=O)N2C[C@H](F)C[C@H]2C(=O)Nc2ccc(F)c(Br)n2)cn1` [Compound 539, ethyl 2-(5-(3-Acetyl-1-(2-((2S,4R)-2-((6-bromo-5-fluoropyridin-2-yl)carbamoyl)-4-fluoropyrrolidin-1-yl)-2-oxoethyl)-1H-indazol-5-yl)pyrimidin-2-yl)acetate], the IC50 was under 1000 nM.

The IC50 is the concentration needed to halve the response being measured.
